The record followed here is patent publication US5563268A, “Heterobiaryl derivatives” (Dr. Karl Thomae GmbH, priority 1991, dated 1996).

Each structure is given as a SMILES string. Structures can show the parent of a compound that is named as a salt. A value given as a limit tells only on which side of the number the result lay.

Data set [1] has as its system human thrombocytes. The data set can be described thus: Fibrinogen binding to human thrombocytes (125I-fibrinogen, gel-filtered platelets). The settings on record: inhibition of 125I-fibrinogen binding by 50%, 20 minutes at ambient temperature, read-out: Fibrinogen binding test ID50. The method, then: (§1) 1. Fibrinogen binding to human thrombocytes Blood obtained by puncture of an antecubital vein is anticoagulated with trisodium citrate (final concentration: 13 mM) and centrifuged for 10 minutes at 170 *g. The supernatant platelet-rich plasma is placed on a Sepharose 2B column (Pharmacia) and eluted with a solution of 90 mM common salt, 14 mM trisodium citrate, 5 mM glucose and 50 mM tris(hydroxymethyl)aminomethane, adjusted to pH 7.4. The gel-filtered platelets (GFP) appearing in front of the plasma proteins are used for the binding tests. 50 μl of a 60 mM calcium chloride solution, 50 μl of a 0.6 mM adenosine diphosphate solution, 100 μl of substance solution or solvent and 50 μl of fibrinogen solution (containing 3 μg ^125 I-fibrinogen) are added to 750 μl of GFP and incubated for 20 minutes at ambient temperature. The non-specific binding is measured in the presence of 3 mg/ml of cold fibrinogen. 900 μl of the incubate are carefully pipetted onto 250 μl of silicon oil (AP 38: AR 20, 1:2 v/v, Wacker Chemie) in Eppendorf vessels and centrifuged for 2 minutes at 10,000 *g. The aqueous supernatant and some of the oil are removed, the tip of the vessel with the platelet pellet is cut off and the quantity of bound fibrinogen is measured in a gamma-counter. The concentration of substance which inhibits fibrinogen binding by 50% is calculated from a series of concentrations and given as the IC50.

The test system of data set [2] is thrombocyte aggregation. Kind of data set: Antithrombotic activity: inhibition of collagen-induced platelet aggregation (Born and Cross) in platelet-rich plasma. The format is cell-based, healthy volunteers (human). The settings on record: 10 min, human platelet-rich plasma, 10 minutes incubation at 37° C. The method, then:
Method The thrombocyte aggregation is measured using the Born and Cross method (J. Physiol. 170: 397 (1964)) in platelet-rich plasma taken from healthy volunteers. To inhibit coagulation the blood is mixed with 3.14% sodium citrate in a ratio by volume of 1:10. Collagen-induced aggregation The pattern of the decrease in optical density of the platelet suspension is photometrically measured and recorded after the addition of the aggregation-triggering substance. The rate of aggregation is concluded from the angle of inclination of the density curve. The point on the curve where there is maximum light transmittance is used to calculate the optical density. The amount of collagen used is as small as possible but sufficient to produce an irreversible reaction curve. Standard commercial collagen produced by Hormonchemie of Munich is used. Before the addition of the collagen the plasma is incubated for 10 minutes with the substance at 37° C. From the measurements obtained an EC50 is determined graphically, indicating a 50% change in the optical density in terms of the inhibition of aggregation.

For data set [3], the system named is mice. The data set can be described thus: Tolerability after intravenous administration to mice. The format is in vivo. To be noted: intravenous administration of 30 mg/kg to three mice.
Data set [4] relates to human thrombocytes. Kind of data set: Antiaggregatory activity ex vivo after oral administration to rats, rat plasma in the presence of human thrombocytes. Also noted: species or system rat (treated animals. To be noted: 10 mg/kg oral, two hours after administration, rat plasma with human thrombocytes.
The target in data set [5] is human thrombocytes. The data set can be described thus: Fibrinogen binding test on human thrombocytes with 125I-fibrinogen replaced by a 3H-labelled ligand (footnote *). To be noted: * 125I fibrinogen replaced by 3H-labelled (3S,5S)-5-[(4amidino-4-biphenylyl)-oxymethyl... pyrrolidon ligand; 20 min; read-out: Fibrinogen binding test ID50. How it is done: as §1, with “The gel-filtered platelets (GFP) appearing in front of the plasma proteins are used for the binding tests. 50 μl of a 60 mM calcium chloride solution, 50 μl of a 0.6 mM adenosine diphosphate solution, 100 μl of substance solution or solvent and 50 μl of fibrinogen solution (containing 3 μg ^125 I-fibrinogen) are added to 750 μl of GFP and incubated for 20 minutes at ambient temperature.” left out, “IC50. | *^125 I fibrinogen was replaced by [^3 […]” for “IC50.”

Take `Cl.Cn1nc(-c2ccc(CN)cc2)cc(C(=O)N[C@H]2CC[C@H](C(=O)O)CC2)c1=O` [Example 4, 6-[4-(Aminomethyl)-phenyl]-4-[(trans-4-carboxy-cyclohexyl)-aminocarbonyl]-2-methyl-(2H)-pyridazin-3-one-hydrochloride]: the IC50 in data set [1] is 370 nM. Further, the EC50 (in general, the midpoint of the concentration-response curve) in data set [2] worked out at 790 nM. Moreover, the deaths entry in data set [3] is “did not cause any deaths”.
Turning to `N=C(N)c1ccc(-c2ccc(Oc3ccc(CCC(=O)O)cc3)nn2)cc1` [1(8), 6-(4-amidinophenyl)-3-[4-(2-carboxyethyl)-phenyloxy]-pyridazine], the IC50 in data set [1] came to 1700 nM. The compound further yielded an EC50 in data set [2] of 39000 nM.
Turning to `Cn1nc(-c2ccc(C(=N)N)cc2)cc(C(=O)N(C)[C@H]2CC[C@H](C(=O)O)CC2)c1=O` [1(16), 6-(4-amidinophenyl)-4-[N-(trans-4-carboxycyclohexyl)-N-methyl-aminocarbonyl]-2-methyl-(2H)-pyridazin-3-one], the IC50 in data set [1] turned out to be 55 nM. The compound also came in with a 50% effective concentration (EC50) in data set [2] of 160 nM. Further, the deaths entry in data set [3] was “did not cause any deaths”.
On to `COC(=O)[C@H]1CC[C@H](NC(=O)c2cc(-c3ccc(C(=N)N)cc3)nn(C)c2=O)CC1` [Example 2, 6-(4-Amidinophenyl)-4-[[trans-4-(methoxycarbonyl)-cyclohexyl]-aminocarbonyl]-2-methyl-(2H)-pyridazin-3-one], for which the IC50 in data set [1] was determined as 1900 nM. For the same compound, the EC50 in data set [2] worked out at 360 nM.
Take `Cn1nc(-c2ccc(C(=N)N)cc2)cc(C(=O)NCCCCC(=O)O)c1=O` [Example 1, 6-(4-Amidinophenyl)-4-[(4-carboxybutyl)-aminocarbonyl]-2-methyl-(2H)-pyridazin-3-one]: the IC50 in data set [1] stood at 130 nM. Also, the concentration giving a half-maximal response (EC50) in data set [2] is 420 nM. Also, the deaths result in data set [3] is listed as “did not cause any deaths”.
For `N=C(N)c1ccc(-c2ccc(N[C@H]3CC[C@H](C(=O)O)CC3)nn2)cc1` [1(11), 6-(4-amidinophenyl)-3-[(trans-4-carboxycyclohexyl)-amino]-pyridazine], the IC50 in data set [1] was found to be 580 nM. For the same compound, the 50% effective concentration (EC50) in data set [2] was determined as 1200 nM.
Turning to `COC(=O)NC(=N)c1ccc(-c2cc(C(=O)N[C@H]3CC[C@H](C(=O)OC)CC3)c(=O)n(C)n2)cc1` [Example 3, 6-[4-[N-(Methoxycarbonyl)-amidino]-phenyl]-4-[[trans-4-(methoxycarbonyl)-cyclohexyl]-aminocarbonyl]-2-methyl-(2H)-pyridazin-3-one], in data set [1], the IC50 was 2200 nM. In data set [2], the EC50 was greater than 300000 nM. The antiaggregatory activity entry in data set [4] is given as “showed an antiaggregatory activity”. Also, the deaths result in data set [3] is “did not cause any deaths”.
As for `N=C(N)c1ccc(-c2cc(C(=O)N[C@H]3CC[C@H](C(=O)O)CC3)c(=O)n(CC(=O)N3CCOCC3)n2)cc1` [1(30), 6-(4-amidinophenyl)-4-[(trans-4-carboxycyclohexyl)-aminocarbonyl]-2-[(morpholinocarbonyl)-methyl]-(2H)-pyridazin-3-one-hydrochloride], in data set [5], the IC50 turned out to be 33 nM. For the same compound, in data set [2], the midpoint of the response, the EC50, lay at 100 nM.
The matching figures for `N=C(N)c1ccc(-c2cc(C(=O)N[C@H]3CC[C@H](C(=O)O)CC3)c(=O)n(Cc3ccccc3)n2)cc1` [1(18), 6-(4-amidinophenyl)-2-benzyl-4-[(trans-4-carboxycyclohexyl)-aminocarbonyl]-(2H)-pyridazin-3-one]: 33 nM and 310 nM.
As for `N=C(N)c1ccc(-c2cc(C(=O)N[C@H]3CC[C@H](C(=O)O)CC3)cnn2)cc1` [1(20), 3-(4-amidinophenyl)-5-[(trans-4-carboxycyclohexyl)-aminocarbonyl]-pyridazine], in data set [1], the IC50 is 57 nM. The EC50 in data set [2] amounted to 290 nM. In addition, the deaths entry in data set [3] is on record as “did not cause any deaths”.
For the compound `COc1nc(-c2ccc(C(=N)N)cc2)ncc1C(=O)N1CCC(CC(=O)O)CC1` [1(14), 2-(4-amidinophenyl)-5-[4-(carboxymethyl)-piperidinocarbonyl]-4-methoxy-pyrimidine], the IC50 in data set [1] stood at 33 nM. The same compound returned an EC50 in data set [2] of 100 nM.
With `Cn1nc(-c2ccc(C(=N)N)cc2)cc(C(=O)N[C@H]2CC[C@H](C(=O)O)CC2)c1=O` [1(4), 6-(4-amidinophenyl)-4-[(trans-4-carboxycyclohexyl)-aminocarbonyl]-2-methyl-(2H)-pyridazin-3-one], the IC50 in data set [1] worked out at 37 nM. Moreover, it took 540 nM to reach a half-maximal effect in data set [2] (EC50). In addition, the deaths result in data set [3] was “did not cause any deaths”.
Take `N=C(N)c1ccc(-c2ccc(Nc3ccc(CCC(=O)O)cc3)nn2)cc1` [1(7), 6-(4-amidinophenyl)-3-[4-(2-carboxyethyl)-phenylamino]-pyridazine]: in data set [1], the IC50 amounted to 4400 nM. This compound also showed an EC50 in data set [2] of 12000 nM.
On the same counts, the results for `COC(=O)CC1CCN(C(=O)c2cnc(-c3ccc(C(=N)N)cc3)nc2OC)CC1` [2(15), 2-(4-amidinophenyl)-4-methoxy-5-[4-[(methoxycarbonyl)-methyl]-piperidinocarbonyl]-pyrimidine-hydrochloride] are 52000 nM and 5200 nM.
Regarding `COC(=O)[C@H]1CC[C@H](N(C)C(=O)c2cc(-c3ccc(C(=N)N)cc3)nn(C)c2=O)CC1` [2(17), 6-(4-amidinophenyl)-4-[N-[trans-4-(methoxycarbonyl)-cyclohexyl]-N-methyl-aminocarbonyl]-2-methyl-(2H)-pyridazin-3-one-hydrochloride], the IC50 in data set [1] was 2300 nM. Further, the EC50 in data set [2] amounted to 1300 nM.
On the same counts, the results for `N=C(N)c1ccc(-c2cc(C(=O)NCCCCC(=O)O)c(=O)[nH]n2)cc1` [1(3), 6-(4-amidinophenyl)-4-[(4-carboxybutyl)-aminocarbonyl]-2H-pyridazin-3-one] are 200 nM and 390 nM.
The matching figures for `COC(=O)[C@H]1CC[C@H](NC(=O)c2cc(-c3ccc(CN)cc3)nn(C)c2=O)CC1` [Example 5, 6-[4-(Aminomethyl)-phenyl]-4-[[trans-4-(methoxycarbonyl)-cyclohexyl]-aminocarbonyl]-2-methyl-(2H)-pyridazin-3-one-hydrochloride]: 6200 nM and 3000 nM.
For the compound `COC(=O)CCCCNC(=O)c1cc(-c2ccc(C(=N)N)cc2)nn(C)c1=O` [2(1), 6-(4-amidinophenyl)-4-[[4-(methoxycarbonyl)-butyl]-aminocarbonyl]-2-methyl-(2H)-pyridazin-3-one], the IC50 in data set [1] is 3200 nM. In addition, in data set [2], the response was half-maximal at 1900 nM (EC50).
Regarding `COc1nnc(-c2ccc(C(=N)N)cc2)cc1C(=O)N[C@H]1CC[C@H](C(=O)O)CC1` [1(21), 6-(4-amidinophenyl)-4-[(trans-4-carboxycyclohexyl)-aminocarbonyl]-3-methoxy-pyridazine], the IC50 in data set [1] is 62 nM. In data set [2], a half-maximal effect (EC50) was put at 320 nM.
